Measured values: patent publication US9072729B2, “Method for treating fibrosis and cancer with imidazolium and imidazolinium compounds” (Agency for Science, Technology and Research, priority 2008, dated 2015)

What was measured:
[1] = system: Bcl-2 and IAP protein expression in HepG2 cells; assay: Western blot of Bcl-2 and IAP family proteins; format: cell-based, human; settings: HepG2, 0-2.0 mM, 24 hr
Procedure: FIG. 24. DBZIM affected Bcl-2 and IAP protein expression. HepG2 cells were treated with DBZIM (0, 0.5, 1.0, 1.5 and 2.0 mM) for 24 hr. Total protein was collected using RIPA buffer. 15 μg of total protein was resolved in 4-12% gradient PAGE-SDS gel. The target proteins were recognized by respective antibodies, and visualized by the ECL method. The membrane was stripped and probed for the α-tubulin as the loading control.
(§1) Protein extracts were prepared by lysing cell pellet in RIPA buffer (Pierce, Ill., USA) for total protein extract, or in NE-PER reagent from Pierce (Pierce, Ill., USA) for nuclear and cytoplasmic fractions, or in a Kit from BioVision (CA, USA) for mitochondria and cytosol fractions. Protein content was quantified using BCA Kit (Pierce, Ill., USA). Fifteen micrograms of protein were resolved in 4-12% gradient SDS/polyacrylamide gel electrophoresis (PAGE) gel, and transferred to nitrocellular membrane. The membrane was then probed with primary antibodies against Bcl-XL, Bak, Bcl-2α, Bax (Lab Vision Corp., CA, USA), survivin, xIAP, cIAP (R&D systems Inc., MN, USA), c-Jun, c-Fos, JunB, JunD, Fra-1, Fra-2 (Santa Cruz Biotechnology, CA, USA) respectively, and detected by horseradish peroxidase-conjugated secondary antibody (Santa Cruz Biotechnology, CA, USA). Protein bands were recorded on X-ray film by reacting with ECL chemiluminescence reagents (Amersham Biosciences, NJ, USA). Alpha-tubulin (Abeam, UK) was used as the loading control for total protein, Tata binding protein (TBP) (Abeam, UK) was used as the loading control for nuclear protein, and Cox4 (Abcam, UK) was used as loading control for mitochondria protein.

[2] = system: AP-1; assay: Western blot of AP-1 complex members in nuclear extracts; format: cell-based, human; settings: 24 hr
Procedure: FIG. 28. DBZIM induced up-regulation of AP-1 expression in HepG2 cells. HepG2 cells were treated with DBZIM for 24 hr. Cytoplasmic and nuclear proteins were fractionated using a kit from Pierce. 15 μg of nuclear proteins were resolved in 4-12% gradient PAGE-SDS gel. The target proteins were recognized by their respective antibodies, and visualized by the ECL method. The membrane was stripped and re-probed for Tata binding protein TBP as loading control.
as §1, with “Fifteen micrograms of protein were resolved in 4-12% gradient SDS/polyacrylamide gel electrophoresis (PAGE) gel, and transferred to nitrocellular membrane.” left out, “Alpha-tubulin (Abeam, UK) was used as the loading control for total protein, Tata binding protein (TBP) (Abeam, UK) was used as the loading control for nuclear protein, and Cox4 (Abcam, UK) was used as loading control for mitochondria protein.” left out

[3] = system: C6; assay: Caspase 3/7 activity in C6; format: cell-based, rat; settings: C6, 2.0 mM, 6 hr
Procedure: (§2) FIG. 30. DBZIM inhibited cell proliferation in glioma cell line C6 (A) and U87 MG (C) and induced caspase 3/7 activity in C6 (B) and U87 MG (D). C6 or U87 cells were incubated with DBZIM of various concentrations for 48 hr for proliferation assay and 6 hr for caspase 3/7 activation assay. Proliferation was measured using MTS kit from Promega and expressed as relative cell proliferation with control group was normalized to 1. Caspase 3/7 activity was quantified using a kit from Promega and also expressed as relative caspase 3/7 activity of treated groups over control group.
(§3) Capspase 3/7 activity and lactate dehydrogenase (LDH) release were measured by Fluorometric assays (Promega Corp., WI, USA). The HCC cells were cultured in 96-well plate and treated with DBZIM of various concentrations for 6 hr before assays. For caspase 3/7 assay, medium was removed and substrate buffer was added to lyse the cell and react with caspase 3/7 to give rise to fluorescence signal which was read at Ex=485 nm and Em=530 nm on a Tecan Safire II plate reader after 1 hr incubation. The caspase 3/7 activity of sample cells with the compound treatment was expressed as relative fold change after normalizing to the control cells. The LDH assay (indicative of membrane integrity) was performed using a Kit from Promega Corp according to manufactor's instructions.

[4] = system: HepG2 cells; assay: Cell based caspase 3/7 and LDH assays, HepG2; design: species or system human; settings: HepG2, 6 hr
Procedure: (§4) FIG. 22. […] HLE or HepG2 cells were incubated with DBZIM of various concentrations for 6 hr, and assayed for caspase 3/7 activity and LDH releasing (expressed as % toxicity). DBZIM induced apoptosis as characterized by annexin V staining using flow cytometer in HLE (E) and HepG2 (F). Scatter plot and histogram gave the representative information on the cell population distribution while bar graphs quantified the percentage of apoptotic cells from the histogram. HLE and HepG2 cells were treated by DBZIM of various concentrations for 24 hr before harvesting for annexin V staining and flow cytometric analysis.
as §3

[5] = system: U87 MG; assay: Caspase 3/7 activity in U87 MG; format: cell-based, human; settings: 2 mM, 6 hr
Procedure: as §2, §3

[6] = system: HepG2 cells; assay: Annexin V staining and flow cytometry, HepG2; format: cell-based, human; settings: HepG2, 24 hr; TRAIL 100 ng/ml
Procedure: as §4
HLE and HepG2 cells were treated with various concentrations of DBZIM or TRAIL (100 ng/ml) for 24 hr, harvested and labeled with Annexin V-FITC (BioVision, CA, USA). The labeled cells were analysed by flow cytometry FACSCalibur ([…], NJ, USA) and CellQuest software. Cells showing green staining in the plasma membrane were considered as apoptotic cells.

[7] = system: Huh7 cells; assay: HCC xenograft model (Huh7 cells in Balb/c nude mice); format: in vivo, mouse; settings: 2 grams/liter in drinking water, 3 weeks
Procedure: (§5) Balb/c Nude mice, 5-6 weeks old, were inoculated with 1×10^7 Huh7 cells in 0.2 ml volume of Matrigel/DMEM mix. Since not every mouse developed a tumor after the inoculation of HCC cells, only those with visible tumors (about 8 weeks after inoculation) were used for subsequent experiment. The tumor-bearing mice were randomly divided to the control and the treatment group. (n=3), respectively. Mice in the treatment group had free access to drinking water containing DBZIM (2 grams/liter) only, while mice in the control group had free access to Water only. The compound treatment lasted for 3 weeks. The tumor size was measured weekly, and the tumor volume was calculated using the formula: 0.52×width^2×length.
as §5, with “group” for “group.”, “compound 9 (IBN-9) at 0.6 g/l or 1.5 g/l” for “DBZIM (2 grams/liter)”, “water” for “Water”

[Br-].c1ccc(Cn2cc[n+](Cc3ccccc3)c2)cc1 [DBZIM, 1,3-bisbenzylimidazolium bromide]
Bak protein [1]: up-regulated | Bcl-2α and Bax proteins [1]: not affected | Bcl-XL protein [1]: slightly down-regulated | survivin protein [1]: significantly suppressed | xIAP and cIAP proteins [1]: not affected | AP-1 complex members (C-Jun, Jun B, Jun D, Fra-1; not Fra-2) [2]: significantly induced | elevation of caspase 3/7 [3]: 3 folds | LDH release [4]: least affected | caspase 3/7 activity [4]: enhanced | elevation of caspase 3/7 [5]: 17 folds | apoptosis (annexin V staining) [6]: dose-dependently induced apoptosis | decrease of body weight [7]: 17% | reduction of tumor volume [7]: 40%
